Measured values taken from PubChem BioAssay (NCI).
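Step 1: Grow cells in 96-well plates. Step 2: Expose to compound for 48 hours at 5 concentrations. Step 3: Interpolate endpoints linearly; if unreached, use highest concentration. At the GI50, growth is halved. TGI denotes the concentration required for complete inhibition of growth.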

Assays:
Test in all cases: NCI anticancer screen, dose series, 48 h
RXF 393 renal = tested on: RXF 393 renal
MCF7 breast = tested on: MCF7 breast
HCC-2998 colon = tested on: HCC-2998 colon
MDA-MB-468 breast = tested on: MDA-MB-468 breast
CAKI-1 renal = tested on: CAKI-1 renal
HOP-92 NSCLC = tested on: HOP-92 NSCLC
T-47D breast = tested on: T-47D breast
COLO 205 colon = tested on: COLO 205 colon
HCT-15 colon = tested on: HCT-15 colon
SNB-75 CNS = tested on: SNB-75 CNS
MDA-MB-435 = tested on: MDA-MB-435
BT-549 breast = tested on: BT-549 breast
NCI/ADR-RES ovarian = tested on: NCI/ADR-RES ovarian
SK-MEL-5 melanoma = tested on: SK-MEL-5 melanoma
HS 578T breast = tested on: HS 578T breast
MDA-MB-231 breast = tested on: MDA-MB-231 breast
HT29 colon = tested on: HT29 colon
U251 CNS = tested on: U251 CNS
ACHN renal = tested on: ACHN renal
EKVX NSCLC = tested on: EKVX NSCLC
LOX IMVI melanoma = tested on: LOX IMVI melanoma
SN12C renal = tested on: SN12C renal
PC-3 prostate = tested on: PC-3 prostate
UACC-62 melanoma = tested on: UACC-62 melanoma
TK-10 renal = tested on: TK-10 renal
IGROV1 ovarian = tested on: IGROV1 ovarian
SNB-19 CNS = tested on: SNB-19 CNS
A498 renal = tested on: A498 renal
SR leukemia = tested on: SR leukemia
SW-620 colon = tested on: SW-620 colon
SK-MEL-28 melanoma = tested on: SK-MEL-28 melanoma
DU-145 prostate = tested on: DU-145 prostate
MALME-3M melanoma = tested on: MALME-3M melanoma
CCRF-CEM leukemia = tested on: CCRF-CEM leukemia
NCI-H23 lung = tested on: NCI-H23 lung
KM12 colon = tested on: KM12 colon
MOLT-4 leukemia = tested on: MOLT-4 leukemia
SF-539 CNS = tested on: SF-539 CNS
HCT-116 colon = tested on: HCT-116 colon
NCI-H226 lung = tested on: NCI-H226 lung
K-562 leukemia = tested on: K-562 leukemia
OVCAR-3 ovarian = tested on: OVCAR-3 ovarian
A549 NSCLC = tested on: A549 NSCLC
UACC-257 melanoma = tested on: UACC-257 melanoma
OVCAR-4 ovarian = tested on: OVCAR-4 ovarian
HL-60(TB) leukemia = tested on: HL-60(TB) leukemia
786-0 renal = tested on: 786-0 renal
SK-MEL-2 melanoma = tested on: SK-MEL-2 melanoma
RPMI-8226 leukemia = tested on: RPMI-8226 leukemia
SK-OV-3 ovarian = tested on: SK-OV-3 ovarian
OVCAR-5 ovarian = tested on: OVCAR-5 ovarian
UO-31 renal = tested on: UO-31 renal
SF-295 CNS = tested on: SF-295 CNS
SF-268 CNS = tested on: SF-268 CNS
HOP-62 NSCLC = tested on: HOP-62 NSCLC
OVCAR-8 ovarian = tested on: OVCAR-8 ovarian
M14 melanoma = tested on: M14 melanoma
NCI-H522 lung = tested on: NCI-H522 lung
NCI-H460 lung = tested on: NCI-H460 lung

O=C(N/N=C/c1ccsc1)c1[nH]c2ccc(Br)cc2c1-c1ccccc1
GI50 (RXF 393 renal): 287 nM
TGI (RXF 393 renal): 26700 nM
GI50 (MCF7 breast): 132 nM
TGI (MCF7 breast): 13400 nM
GI50 (HCC-2998 colon): 399 nM
TGI (HCC-2998 colon): 13000 nM
GI50 (MDA-MB-468 breast): 255 nM
TGI (MDA-MB-468 breast): 3890 nM
GI50 (CAKI-1 renal): 315 nM
TGI (CAKI-1 renal): 25000 nM
GI50 (HOP-92 NSCLC): 2440 nM
TGI (HOP-92 NSCLC): 25000 nM
GI50 (T-47D breast): 3120 nM
TGI (T-47D breast): 48500 nM
GI50 (COLO 205 colon): 353 nM
TGI (COLO 205 colon): 1970 nM
GI50 (HCT-15 colon): 256 nM
TGI (HCT-15 colon): 12800 nM
GI50 (SNB-75 CNS): 234 nM
TGI (SNB-75 CNS): 21500 nM
GI50 (MDA-MB-435): 76.4 nM
TGI (MDA-MB-435): 525 nM
GI50 (BT-549 breast): 317 nM
TGI (BT-549 breast): 1950 nM
GI50 (NCI/ADR-RES ovarian): 173 nM
TGI (NCI/ADR-RES ovarian): 549 nM
GI50 (SK-MEL-5 melanoma): 260 nM
TGI (SK-MEL-5 melanoma): 1830 nM
GI50 (HS 578T breast): 202 nM
TGI (HS 578T breast): 13200 nM
GI50 (MDA-MB-231 breast): 792 nM
TGI (MDA-MB-231 breast): 13100 nM
GI50 (HT29 colon): 272 nM
TGI (HT29 colon): 4750 nM
GI50 (U251 CNS): 724 nM
TGI (U251 CNS): 18900 nM
GI50 (ACHN renal): 585 nM
TGI (ACHN renal): 27700 nM
GI50 (EKVX NSCLC): 872 nM
TGI (EKVX NSCLC): 29300 nM
GI50 (LOX IMVI melanoma): 217 nM
TGI (LOX IMVI melanoma): 13300 nM
GI50 (SN12C renal): 473 nM
TGI (SN12C renal): 12500 nM
GI50 (PC-3 prostate): 612 nM
TGI (PC-3 prostate): 24000 nM
GI50 (UACC-62 melanoma): 299 nM
TGI (UACC-62 melanoma): 16000 nM
GI50 (TK-10 renal): 13500 nM
TGI (TK-10 renal): 85000 nM
GI50 (IGROV1 ovarian): 600 nM
TGI (IGROV1 ovarian): 15600 nM
GI50 (SNB-19 CNS): 1840 nM
TGI (SNB-19 CNS): 66400 nM
GI50 (A498 renal): 19500 nM
TGI (A498 renal): 46500 nM
GI50 (SR leukemia): 255 nM
TGI (SR leukemia): 63500 nM
GI50 (SW-620 colon): 204 nM
TGI (SW-620 colon): 19100 nM
GI50 (SK-MEL-28 melanoma): 4190 nM
TGI (SK-MEL-28 melanoma): 22600 nM
GI50 (DU-145 prostate): 435 nM
TGI (DU-145 prostate): 32900 nM
GI50 (MALME-3M melanoma): 6990 nM
TGI (MALME-3M melanoma): 26100 nM
GI50 (CCRF-CEM leukemia): 228 nM
TGI (CCRF-CEM leukemia): 21700 nM
GI50 (NCI-H23 lung): 696 nM
TGI (NCI-H23 lung): 18900 nM
GI50 (KM12 colon): 327 nM
TGI (KM12 colon): 14100 nM
GI50 (MOLT-4 leukemia): 386 nM
TGI (MOLT-4 leukemia): 18400 nM
GI50 (SF-539 CNS): 190 nM
TGI (SF-539 CNS): 943 nM
GI50 (HCT-116 colon): 190 nM
TGI (HCT-116 colon): 4410 nM
GI50 (NCI-H226 lung): 1750 nM
TGI (NCI-H226 lung): 27600 nM
GI50 (K-562 leukemia): 103 nM
TGI (K-562 leukemia): > 44000 nM
GI50 (OVCAR-3 ovarian): 202 nM
TGI (OVCAR-3 ovarian): 12600 nM
GI50 (A549 NSCLC): 460 nM
TGI (A549 NSCLC): > 100000 nM
GI50 (UACC-257 melanoma): 6930 nM
TGI (UACC-257 melanoma): 41300 nM
GI50 (OVCAR-4 ovarian): 6100 nM
TGI (OVCAR-4 ovarian): > 66600 nM
GI50 (HL-60(TB) leukemia): 199 nM
TGI (HL-60(TB) leukemia): 656 nM
GI50 (786-0 renal): 509 nM
TGI (786-0 renal): 17700 nM
GI50 (SK-MEL-2 melanoma): 764 nM
TGI (SK-MEL-2 melanoma): 20000 nM
GI50 (RPMI-8226 leukemia): 236 nM
TGI (RPMI-8226 leukemia): 16600 nM
GI50 (SK-OV-3 ovarian): 2050 nM
TGI (SK-OV-3 ovarian): 27200 nM
GI50 (OVCAR-5 ovarian): 563 nM
TGI (OVCAR-5 ovarian): 22500 nM
GI50 (UO-31 renal): 578 nM
TGI (UO-31 renal): 24200 nM
GI50 (SF-295 CNS): 189 nM
TGI (SF-295 CNS): 13800 nM
GI50 (SF-268 CNS): 817 nM
TGI (SF-268 CNS): 17900 nM
GI50 (HOP-62 NSCLC): 512 nM
TGI (HOP-62 NSCLC): 18100 nM
GI50 (OVCAR-8 ovarian): 313 nM
TGI (OVCAR-8 ovarian): 10300 nM
GI50 (M14 melanoma): 267 nM
TGI (M14 melanoma): 13100 nM
GI50 (NCI-H522 lung): 163 nM
TGI (NCI-H522 lung): 699 nM
GI50 (NCI-H460 lung): 156 nM
TGI (NCI-H460 lung): 10600 nM
